Measurements: US12496315B2, “Compositions for drug delivery and methods of use thereof” (Stellular Bio, Inc., priority 2018, dated 2025)

How the values were obtained:
[1] = test system: iPSC differentiation cultures on Laminin 521; experiment: WNT agonist addition during iPSC directed differentiation; type: cell-based, human; details: for Stage 1 differentiation efficiency at day 6, CD31 and CD34 immunofluorescence: first 48 hours
Text: WNT signaling is important during development. The GSK3 kinase inhibitors CHIR98014 and CHIR99021 act as WNT agonists. […] The control and CHIR98014 cultures were then transitioned to Stage 2, where the production and release of preMKs were tracked by immunofluorescence staining of CD41 and CD43.

iPSCs = experiment: Soluble Laminin 521 addition in 3D iPSC differentiation, preMK yield; type: cell-based, human; details: for Stage 2 preMK yields vs control: addition at Day −1 or Day 6
Protocol: […] 24 hours later, the media was replaced with Stage 1 media and media exchanges were performed for 6 days. Media was then exchanged with Stage 2 media, with or without soluble Laminin 521. 24 hours later, daily half media exchanges were performed for up to 6 additional days. […] To determine if the effect of Laminin 521 could also be observed in agitated 3D cultures, iPSCs were dissociated as single cells and 1.5 million cells were seeded into each well of a 6-well ultra-low adherent plate containing StemFlex and the Rock inhibitor H1152 (control media), with or without soluble recombinant Laminin 521, and placed on an orbital shaker. 24 hours later, the media was replaced with Stage 1 media and media exchanges were performed for 6 days. Media was then exchanged with Stage 2 media, with or without soluble Laminin 521. 24 hours later, daily half media exchanges were performed for up to 6 additional days.

Cc1c[nH]c(-c2cnc(NCCNc3ccc(C#N)cn3)nc2-c2ccc(Cl)cc2Cl)n1 [CHIR99021]
Stage 1 differentiation efficiency at day 6, CD31 and CD34 immunofluorescence ([1]; 6 μM): dramatic increase

CHIR98014
Stage 1 differentiation efficiency at day 6, CD31 and CD34 immunofluorescence ([1]; 0.6 μM): dramatic increase
Stage 2 output, visual estimation of CD41+ cells ([1]; 0.6 μM, first 48 hours of Stage 1): higher output during Stage 2

Laminin 521: soluble recombinant Laminin 521
Stage 2 preMK yields vs control (iPSCs; 6-well ultra-low adherent plate on orbital shaker): increased the preMK yields
Stage 2 preMK yields vs control (iPSCs; 96-well U-bottom ultra-low adherent plate): increased the preMK yields
Laminin 521 effect on preMK yields (iPSCs; single cell passaged iPSCs aggregated in NutriStem): amplified
